# Experimental data reported in patent US8461328B2, “Tricyclic heterocyclic compounds, compositions and methods of use thereof” (Genentech, Inc., priority 2010, dated 2013).
# Legend:
# Assay type in all cases: biochemical
# JAK1 = molecular target: T1, JAK1 (Homo sapiens, UniProt P23458); experiment: JAK1 inhibition (Table 4); settings: read-out: JAK1 Ki
# T1 construct: made in house; host or cells: SF9 insect cells (baculovirus)
# JAK2 = molecular target: T2, JAK2 (Homo sapiens, UniProt O60674); experiment: JAK2 inhibition (Table 4); settings: read-out: JAK2 Ki
# T2 construct: made in house; host or cells: SF9 insect cells (baculovirus)
# JAK3 = molecular target: T3, JAK3 (Homo sapiens, UniProt P52333); experiment: JAK3 inhibition (Table 4); settings: read-out: JAK3 Ki
# T3 construct: made in house; host or cells: SF9 insect cells (baculovirus)
# TYK2 = molecular target: T4, TYK2 (Homo sapiens, UniProt P29597); experiment: TYK2 inhibition (Table 4)
# T4 construct: made in house; host or cells: SF9 insect cells (baculovirus)
# T4 sequence (P29597 873-1187): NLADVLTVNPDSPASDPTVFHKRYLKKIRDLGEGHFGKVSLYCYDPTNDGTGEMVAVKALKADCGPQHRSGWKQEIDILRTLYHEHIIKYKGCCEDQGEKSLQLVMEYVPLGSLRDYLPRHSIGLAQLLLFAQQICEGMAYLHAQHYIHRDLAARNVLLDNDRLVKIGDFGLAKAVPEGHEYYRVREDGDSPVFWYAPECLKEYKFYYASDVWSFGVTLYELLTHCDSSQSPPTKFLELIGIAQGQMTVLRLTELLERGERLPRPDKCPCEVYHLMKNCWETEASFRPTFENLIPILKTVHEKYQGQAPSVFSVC
# T1 sequence (P23458 852-1154): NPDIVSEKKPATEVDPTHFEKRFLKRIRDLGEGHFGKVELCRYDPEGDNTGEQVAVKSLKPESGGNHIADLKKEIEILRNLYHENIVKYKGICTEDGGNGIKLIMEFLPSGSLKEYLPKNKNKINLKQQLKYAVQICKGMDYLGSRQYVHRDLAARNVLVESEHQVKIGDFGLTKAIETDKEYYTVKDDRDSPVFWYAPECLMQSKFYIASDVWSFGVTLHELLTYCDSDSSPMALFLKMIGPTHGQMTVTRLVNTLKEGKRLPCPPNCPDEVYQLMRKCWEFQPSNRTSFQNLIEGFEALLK
# T2 sequence (O60674 812-1132): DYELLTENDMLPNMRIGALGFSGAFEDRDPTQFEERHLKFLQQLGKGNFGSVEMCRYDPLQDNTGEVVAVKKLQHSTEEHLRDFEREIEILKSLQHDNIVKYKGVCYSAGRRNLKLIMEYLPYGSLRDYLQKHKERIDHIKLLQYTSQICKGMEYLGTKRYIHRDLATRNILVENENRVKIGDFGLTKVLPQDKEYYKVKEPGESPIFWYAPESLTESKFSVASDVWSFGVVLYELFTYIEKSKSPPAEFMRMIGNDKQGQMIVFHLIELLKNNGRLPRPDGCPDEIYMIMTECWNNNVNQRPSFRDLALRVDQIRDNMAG
# T3 sequence (P52333 783-1124): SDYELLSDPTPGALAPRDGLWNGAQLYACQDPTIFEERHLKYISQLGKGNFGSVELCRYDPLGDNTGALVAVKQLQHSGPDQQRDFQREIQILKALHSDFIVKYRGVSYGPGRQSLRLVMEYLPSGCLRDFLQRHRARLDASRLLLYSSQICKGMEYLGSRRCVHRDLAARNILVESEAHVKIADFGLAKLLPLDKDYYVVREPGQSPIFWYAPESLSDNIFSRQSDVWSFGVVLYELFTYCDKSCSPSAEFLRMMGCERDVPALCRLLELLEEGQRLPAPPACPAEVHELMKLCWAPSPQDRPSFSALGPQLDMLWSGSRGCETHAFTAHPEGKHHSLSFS
Compound,Ki (JAK1) [nM],Ki (JAK2) [nM],Ki (JAK3) [nM],Ki (TYK2) [nM]
"CN1CCC(C(=O)N2CCC(n3cnc4cnc5[nH]ccc5c43)CC2)C1 (racemic) [Example 452, (1-Methyl-pyrrolidin-3-yl)-[4-(6H-1,3,5,6-tetraaza-as-indacen-1-yl)-piperidin-1-yl]-methanone]",316,1170,,
"COCC(=O)NC1CCCC(n2cnc3cnc4[nH]ccc4c32)C1 (single isomer, unassigned) [Example 483, 2-Methoxy-N-[3-(6H-1,3,5,6-tetraaza-as-indacen-1-yl)-cyclohexyl]-acetamide]",472,832,613,
"c1cc2c(ncc3nc(C4CCCN4)n(C4CCCOC4)c32)[nH]1 (single isomer, unassigned) [Example 665]",432,1800,1780,
"c1cc(N2CCC[C@@H](n3cnc4cnc5[nH]ccc5c43)C2)ccn1 [Example 13, (R)-1-(3,4,5,6-Tetrahydro-2H-[1,4]bipyridinyl-3-yl)-1,6-dihydro-1,2,3,5,6-tetraaza-as-indacene]",179,898,1840,
"CC(=O)N1CCC(n2c(C(F)(F)CN)nc3cnc4[nH]ccc4c32)CC1 [Example 139, 1-{4-[2-(2-Amino-1,1-difluoro-ethyl)-6H-1,2,3,5,6-tetraaza-as-indacen-1-yl]-piperidin-1-yl}-ethanone]",339,930,1450,
"c1ccc(CN2CCC(n3c(C4CCOCC4)nc4cnc5[nH]ccc5c43)CC2)cc1 [Example 154, 1-(1-Benzyl-piperidin-4-yl)-2-(tetrahydro-pyran-4-yl)-1,6-dihydro-1,2,3,5,6-tetraaza-as-indacene]",15.3,28.4,9.24,
"c1ccc(CN2CCC(n3c(CN4CCOCC4)nc4cnc5[nH]ccc5c43)CC2)cc1 [Example 155, 1-(1-Benzyl-piperidin-4-yl)-2-morpholin-4-ylmethyl-1,6-dihydro-1,2,3,5,6-tetraaza-as-indacene]",120,452,304,
"CC(C)(C#N)c1nc2cnc3[nH]ccc3c2n1C1CCN(Cc2cnccn2)CC1 [Example 164, 2-Methyl-2-[1-(1-pyrazin-2-ylmethyl-piperidin-4-yl)-1,6-dihydro-1,2,3,5,6-tetraaza-as-indacen-2-yl]-propionitrile]",52.8,129,57.1,
"CC(C)(O)c1nc2cnc3[nH]ccc3c2n1C1CCN(Cc2ccccc2)CC1 [Example 171, 2-[1-(1-Benzyl-piperidin-4-yl)-1,6-dihydro-1,2,3,5,6-tetraaza-as-indacen-2-yl]-propan-2-ol]",49.9,241,103,
"CC(C)(C)OC(=O)N1CC(F)(F)C[C@H]1C(=O)N1CCC(n2cnc3cnc4[nH]ccc4c32)CC1 [Example 243, (S)-4,4-Difluoro-2-[4-(6H-1,3,5,6-tetraaza-as-indacen-1-yl)-piperidine-1-carbonyl]-pyrrolidine-1 carboxylic acid tert-butyl ester]",357,446,,
"CC(C)(O)c1nc2cnc3[nH]ccc3c2n1C1CCNCC1 [Example 334, 2-(1-Piperidin-4-yl-1,6-dihydro-1,3,5,6-tetraaza-as-indacen-2-yl)-propan-2-ol]",137,2240,2550,
"CC(C)(C)OC(=O)N1CCCC[C@H]1CN[C@H]1CC[C@H](n2cnc3cnc4[nH]ccc4c32)CC1 [Example 564, trans (S)-2-{[4-(6H-1,3,5,6-Tetraaza-as-indacen-1-yl)-cyclohexylamino]-methyl}-piperidine-1-carboxylic acid tert-butyl ester]",112,710,2650,
"COCCNc1nc2cnc3[nH]ccc3c2n1C1CCNCC1 [Example 657, (2-Methoxy-ethyl)-(1-piperidin-4-yl-1,6-dihydro-1,2,3,5,6-tetraaza-as-indacen-2-yl)-amine]",29.1,1280,668,
"C[C@H](O)c1nc2cnc3[nH]ccc3c2n1[C@@H]1CCCN(C(=O)Cn2ccnc2)C1 [Example 781, 1-{(R)-3-[2-((S)-1-Hydroxy-ethyl)-6H-1,3,5,6-tetraaza-as-indacen-1-yl]-piperidin-1-yl}-2-imidazol-1-yl-ethanone]",380,1490,4000,
"COCCC(=O)N1CCC[C@@H](n2c([C@@H](C)O)nc3cnc4[nH]ccc4c32)C1 [Example 784, 1-{(R)-3-[2-((R)-1-Hydroxy-ethyl)-6H-1,3,5,6-tetraaza-as-indacen-1-yl]-piperidin-1-yl}-3-methoxy-propan-1-one]",224,,,
"CC(O)c1nc2cnc3[nH]ccc3c2n1C1CCCN(C(=O)C2CC(=O)N(C)C2)C1 (centres unmarked) [Example 787, 4-{3-[2-(1-Hydroxy-ethyl)-6H-1,3,5,6-tetraaza-as-indacen-1-yl]-piperidine-1-carbonyl}-1-methyl-pyrrolidin-2-one]",464,,2490,
"COC1CCC(C(=O)N2CCCC(n3c(C(C)O)nc4cnc5[nH]ccc5c43)C2)CC1 (centres unmarked) [Example 799, {3-[2-(1-Hydroxy-ethyl)-6H-1,3,5,6-tetraaza-as-indacen-1-yl]-piperidin-1-yl}-(4-methoxy-cyclohexyl)-methanone]",456,,,
"Cc1nc2cnc3[nH]ccc3c2n1[C@H]1CC[C@@H](C(C)(C)O)CC1 [Example 958, Cis-2-[4-(2-Methyl-6H-1,3,5,6-tetraaza-as-indacen-1-yl)-cyclohexyl]-propan-2-ol]",,5.13,36.8,14.3

# Further lines, results first:
Ki (JAK1) [nM],Ki (JAK2) [nM],Ki (JAK3) [nM],Ki (TYK2) [nM],Compound
201,167,,,"Cc1nc2cnc3[nH]ccc3c2n1C(C)C1CCCO1 (single isomer, unassigned) [Example 427, 2-Methyl-1-[1-(tetrahydro-furan-2-yl)-ethyl]-1,6-dihydro-1,3,5,6-tetraaza-as-indacene]"
263,1410,,,"CN1CCCC(C(=O)N2CCC(n3cnc4cnc5[nH]ccc5c43)CC2)C1 (single isomer, unassigned) [Example 453, (1-Methyl-piperidin-3-yl)-[4-(6H-1,3,5,6-tetraaza-as-indacen-1-yl)-piperidin-1-yl]-methanone]"
547,1310,,,"CN1CCCC(C(=O)N2CCC(n3cnc4cnc5[nH]ccc5c43)CC2)C1 (single isomer, unassigned) [Example 454, (1-Methyl-piperidin-3-yl)-[4-(6H-1,3,5,6-tetraaza-as-indacen-1-yl)-piperidin-1-yl]-methanone]"
1690,,4010,,"c1cc2c(ncc3nc(C4CCCN4)n(C4CCCOC4)c32)[nH]1 (single isomer, unassigned) [Example 666]"
181,587,784,,"c1cncc(-c2nc3cnc4[nH]ccc4c3n2C2CCNCC2)c1 [Example 153, 1-Piperidin-4-yl-2-pyridin-3-yl-1,6-dihydro-1,2,3,5,6-tetraaza-as-indacene]"
215,,3900,,"CC(C)(O)Cc1nc2cnc3[nH]ccc3c2n1C1CCNCC1 [Example 173, 2-Methyl-1-(1-piperidin-4-yl-1,6-dihydro-1,2,3,5,6-tetraaza-as-indacen-2-yl)-propan-2-ol]"
106,494,47,,"O=C(c1nc2cnc3[nH]ccc3c2n1C1CCN(Cc2ccccc2)CC1)N1CCOCC1 [Example 237, [1-(1-Benzyl-piperidin-4-yl)-1,6-dihydro-1,3,5,6-tetraaza-as-indacen-2-yl]-morpholin-4-yl-methanone]"
453,763,2090,,"CC(C)(C)OC(=O)N1CCC(n2c(NCCO)nc3cnc4[nH]ccc4c32)CC1 [Example 654, 4-[(2-Hydroxy-ethylamino)-6H-1,2,3,5,6-tetraaza-as-indacen-1-yl]-piperidine-1-carboxylic acid tert-butyl ester]"
438,,,,"CC(O)c1nc2cnc3[nH]ccc3c2n1C1CCCN(C(=O)CC2CCCO2)C1 (centres unmarked) [Example 789, 1-{3-[2-(1-Hydroxy-ethyl)-6H-1,3,5,6-tetraaza-as-indacen-1-yl]-piperidin-1-yl}-2-(tetrahydro-furan-2-yl)-ethanone]"
159,1750,1630,,"C[C@@H](O)c1nc2cnc3[nH]ccc3c2n1[C@@H]1CCCN(C(=O)CCn2ccnc2)C1 [Example 797, 1-{(R)-3-[2-((R)-1-Hydroxy-ethyl)-6H-1,3,5,6-tetraaza-as-indacen-1-yl]-piperidin-1-yl}-3-imidazol-1-yl-propan-1-one]"
69,2640,897,,"C[C@@H](O)c1nc2cnc3[nH]ccc3c2n1[C@@H]1CCCN(C(=O)Cn2ccnc2)C1 [Example 798, 1-{(R)-3-[2-((R)-1-Hydroxy-ethyl)-6H-1,3,5,6-tetraaza-as-indacen-1-yl]-piperidin-1-yl}-2-imidazol-1-yl-ethanone]"
255,1420,,,"CC(C)N1CCCC[C@H]1C(=O)N1CCC(n2cnc3cnc4[nH]ccc4c32)CC1 [Example 950, ((S)-1-Isopropyl-piperidin-2-yl)-[4-(6H-1,3,5,6-tetraaza-as-indacen-1-yl)-piperidin-1-yl]-methanone]"
142,628,,,"COCCN1CCCC[C@H]1C(=O)N1CCC(n2cnc3cnc4[nH]ccc4c32)CC1 [Example 952, [(S)-1-(2-Methoxy-ethyl)-piperidin-2-yl]-[4-(6H-1,3,5,6-tetraaza-as-indacen-1-yl)-piperidin-1-yl]-methanone]"
